One block for each molecule: values may come before it. The source made the active and inactive calls. The rule behind the calls is not given here.
How the values were obtained:
Rattus norvegicus [1] = assay: Antilipolytic activity in Wistar rat assessed as reduction in plasma glycerol AUC (0 to 7 hrs) at 10 mg/kg, po; type: functional, organism-based
[2] = Cmax in Wistar rat at 3 mg/kg, po by LC-MS/MS analysis; type: ADME, organism-based; design: dose 3 mg/kg, route oral; conditions: in vivo
[3] = AUC (0 to 7 hrs) in Wistar rat at 3 mg/kg, po by LC-MS/MS analysis; type: ADME, organism-based; design: dose 3 mg/kg, time < 7 hr, route oral; conditions: in vivo
[4] = Metabolic stability in rat liver microsomes assessed as parent compound remaining at 1 uM after 30 mins in presence of NADPH generating system by LC-MS/MS analysis; type: ADME, microsome; conditions: read-out: Stability
Rattus norvegicus [5] = assay: Antilipolytic activity in Wistar rat assessed as reduction in plasma glycerol AUC (0 to 7 hrs) at 3 mg/kg, po relative to control; type: functional; design: scale not given: the % may be the effect or the level left
Liver = assay: Drug level in human liver microsomes treated with 2-(4-(5-(trifluoromethyl)pyridin-2-yloxy)benzyloxy)phenylboronic acid at 500 uM after 60 mins in presence of [13C2,15N-Gly]GSH and NADPH generating system by LC-MS/MS analysis; type: ADME, microsome; conditions: 1 h

SMILES: O=C(Oc1ccc(Oc2ccc(C(F)(F)F)cn2)cc1)N1CCC(O)CC1
Activity (Rattus norvegicus [1]): Active

Cmax [2]: 3350 ng/mL | AUC(0-t) at 7 h [3]: 19600 ng·h/mL | remaining at 0.5 h, 1 µM [4]: 81%
SMILES: O=C(Nc1ccc(Cl)cc1B(O)O)c1ccc(Oc2ccc(C(F)(F)F)cc2)nc1
Activity (Rattus norvegicus [5]): 17%

Drug metabolism (Liver): Metabolite_Detected
SMILES: O=C(O)CNC(=O)C1CSC(c2ccc(Oc3ccc(C(F)(F)F)cn3)cc2)N1 (stereo unspecified)
